Experimental findings from ChEMBL document CHEMBL5236569, “Emodin lows NPC1L1-mediated cholesterol absorption as an uncompetitive inhibitor” (2022) are described below.

What is called inhibition is the percentage by which the read-out fell short of the control.

Test [1] in a line: Inhibition of cholesterol uptake in human HepG2 cells at 100 uM relative to control. It is filed as functional.
Test [2] is described as follows: Inhibition of cholesterol uptake in human HepG2 cells at 75 uM relative to control. The format is functional.
A short description of test [3]: Inhibition of cholesterol uptake in human HepG2 cells at 50 uM relative to control. The format is functional.
Test [4] in a line: Inhibition of cholesterol uptake in human HepG2 cells at 25 uM relative to control. The format is functional.
Test [5] can be described thus: Inhibition of cholesterol uptake in human HepG2 cells at 12.5 uM relative to control. The format is functional.
Test [6] can be described thus: Inhibition of cholesterol uptake in human Caco-2 cells at 100 uM relative to control. It is filed as functional.
A short description of test [7]: Inhibition of cholesterol uptake in human Caco-2 cells at 75 uM relative to control. The format is functional.
A short description of test [8]: Inhibition of cholesterol uptake in human Caco-2 cells at 50 uM relative to control. It is filed as functional.
Test [9] can be described thus: Inhibition of cholesterol uptake in human Caco-2 cells at 25 uM relative to control. It is filed as functional.
Test [10] is described as follows: Inhibition of cholesterol uptake in human Caco-2 cells at 12.5 uM relative to control. It is filed as functional.
The target of test [11] is T1, NPC1-like intracellular cholesterol transporter 1 (Homo sapiens) (UniProt Q9UHC9).
T1 sequence (whole entry): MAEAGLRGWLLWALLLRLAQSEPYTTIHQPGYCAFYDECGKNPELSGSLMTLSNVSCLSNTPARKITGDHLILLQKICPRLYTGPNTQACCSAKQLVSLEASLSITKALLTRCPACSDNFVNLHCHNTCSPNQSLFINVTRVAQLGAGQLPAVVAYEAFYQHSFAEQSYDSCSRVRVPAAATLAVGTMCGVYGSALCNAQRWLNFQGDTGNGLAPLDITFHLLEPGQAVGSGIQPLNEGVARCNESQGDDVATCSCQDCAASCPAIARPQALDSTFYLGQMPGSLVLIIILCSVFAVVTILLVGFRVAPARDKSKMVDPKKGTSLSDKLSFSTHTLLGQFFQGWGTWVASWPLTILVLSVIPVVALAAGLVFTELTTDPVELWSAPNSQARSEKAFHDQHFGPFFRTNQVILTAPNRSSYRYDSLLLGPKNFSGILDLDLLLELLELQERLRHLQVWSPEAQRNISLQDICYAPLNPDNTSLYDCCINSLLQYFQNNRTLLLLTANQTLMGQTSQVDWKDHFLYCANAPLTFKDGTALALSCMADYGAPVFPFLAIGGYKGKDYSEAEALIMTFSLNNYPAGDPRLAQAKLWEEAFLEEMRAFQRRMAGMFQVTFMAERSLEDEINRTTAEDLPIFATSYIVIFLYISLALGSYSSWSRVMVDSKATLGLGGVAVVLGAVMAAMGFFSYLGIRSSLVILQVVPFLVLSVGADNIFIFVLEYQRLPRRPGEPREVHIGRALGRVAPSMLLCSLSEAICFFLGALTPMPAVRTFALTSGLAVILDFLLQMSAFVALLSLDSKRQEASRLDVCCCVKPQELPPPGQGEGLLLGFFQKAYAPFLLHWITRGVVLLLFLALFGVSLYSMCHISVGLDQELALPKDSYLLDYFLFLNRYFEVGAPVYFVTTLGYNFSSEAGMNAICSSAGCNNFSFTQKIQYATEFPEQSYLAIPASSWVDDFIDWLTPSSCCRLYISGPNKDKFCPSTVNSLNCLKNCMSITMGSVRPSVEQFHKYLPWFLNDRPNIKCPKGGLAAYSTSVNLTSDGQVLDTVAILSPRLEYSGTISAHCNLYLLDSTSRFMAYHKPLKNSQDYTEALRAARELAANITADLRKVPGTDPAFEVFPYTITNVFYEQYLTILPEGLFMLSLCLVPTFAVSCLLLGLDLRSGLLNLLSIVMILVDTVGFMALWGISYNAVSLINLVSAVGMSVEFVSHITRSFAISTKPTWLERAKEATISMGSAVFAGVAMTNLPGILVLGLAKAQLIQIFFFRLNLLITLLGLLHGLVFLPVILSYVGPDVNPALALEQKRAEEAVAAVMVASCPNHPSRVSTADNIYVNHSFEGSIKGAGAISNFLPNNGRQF
Kind of test: Inhibition of NPC1L1in human HepG2 cells assessed as reduction in intracellular cholesterol content incubated for 60 mins by filipin dye based confocal microscopy analysis. It is filed as cell-based.

Test [12] has as its target T1, NPC1-like intracellular cholesterol transporter 1 (Homo sapiens). Kind of test: Inhibition of NPC1L1in human HepG2 cells assessed as increase in intracellular cholesterol content incubated for 60 mins by filipin dye based confocal microscopy analysis. It is filed as cell-based.
Test [13] has the same target. Kind of test: […] inhibition of NPC1L1 (unknown origin) assessed as decrease in Km at upto 150 uM by Lineweaver-burk double inverse plot analysis.
Test [14] shares this target. Description: […] inhibition of NPC1L1 (unknown origin) assessed as decrease in Vmax at upto 150 uM by Lineweaver-burk double inverse plot analysis.
The subject of a further test is HepG2. Kind of test: Effect on NPC1L1 expression in human HepG2 cells at 1 to 100 uM incubated for 24 hrs. The following applies: dose 1-100 µM. It is filed as functional, cell-based.

Molecules are shown by their SMILES. Active and inactive are the calls of the source. The rule behind the calls is not given here.

As to `Cc1cc(O)c2c(c1)C(=O)c1cc(O)cc(O)c1C2=O` [EMODIN], the inhibition at 100 µM came to 27% in test [1] and 29% in test [6]. The figures for the inhibition at 75 µM in [2] and in [7] were 31.3% and 28%, respectively. Moreover, the inhibition at 50 µM was 33.6% in [3] and 32.3% in [8]. The inhibition at 25 µM amounted to 41.6% in test [4] and 39.6% in test [9]. Also, the inhibition at 12.5 µM in test [5] was 52.6%; in test [10] it was 44.3%. Also, the result (in test [11]; in test [12]; in test [13]; in test [14]; with HepG2) was Active.
Take `O=C1[C@H](CC[C@H](O)c2ccc(F)cc2)[C@@H](c2ccc(O)cc2)N1c1ccc(F)cc1` [EZETIMIBE]: the inhibition at 100 µM in [1] was 48.3%; in test [6] it was 70%. Also, the outcome in test [11] was inactive. Moreover, the result in [12] was Active.
